Data set [1] has as its system rat mammary tumor. Nature of the data set: Biodistribution of 125I-NM324 in rat mammary tumor model. Type of data set: in vivo.
For data set [2], the target named is T1, PLC isolated from Bacillus cereus (Bacillus cereus, UniProt P09598).
T1 construct: PLC isolated from Bacillus cereus; endogenous in cells; host or cells: Bacillus cereus
Nature of the data set: PLC substrate assay. Type of data set: biochemical. Here is the method:
(§1) Formal metabolism studies were conducted on several PLE analogs including NM324, the predecessor of NM404. In these studies, each agent was examined to determine its ability to serve as substrates for enzymes associated with PLE metabolism. Three major enzymatic pathways are involved in the metabolism of PLE. O-Alkyl glycerol monooxygenase (AGMO) is responsible for cleavage of the alkyl ether linkage at C-1 to form either the long chain fatty alcohol or subsequently, the corresponding fatty acid. Phospholipases C (PLC) and D (PLD), on the other hand, give rise to the glycerol or phosphatidic acid products, respectively.

Data set [3] deals with serum proteins. Conditions: cited from earlier work.
Data set [4] has as its system carrageenan-induced granulomas. Nature of the data set: Uptake into inflammatory lesions. Conditions: rat, in vivo. On the set-up: species or system rats. From the text:
The utility of tumor tracers like ^67Ga-citrate and ^18F-FDG is limited by their lack of specificity to distinguish neoplasm from inflammation. Further, accumulation of FDG in the urine interferes with visualization of pelvic and abdominal abnormalities. This lack of specificity is a significant clinical issue in patients with cancer. […] Some exemplary embodiments of PLE analogs discussed herein are illustrated in FIG. 1. […] Although FDG-PET has paved the way for hybrid imaging, its lack of tumor cell specificity will always limit its diagnostic efficacy. New molecularly targeted agents, like NM404, which display universal tumor uptake and selective retention regardless of location, as well as selectivity for malignant tumor cells and not inflammatory or hyperplastic lesions, represents a significant improvement in the detection, targeting and characterization of cancer.

For data set [5], the system named is animal tumor models. Conditions: radioiodinated analogs, xenograft and spontaneous tumor rodent models, previous reports; cited from earlier work.
A short description of data set [6]: Blood plasma kinetics. The arrangement: species or system rats. Conditions: rat, in vivo.
In data set [7] the test system is human lung cancer. Nature of the data set: Clinical evaluation of NM324, scintigraphy. Type of data set: in vivo. Conditions: for tumor uptake / detection: scintigraphy in lung cancer patients. From the text:
FIG. 10 is a scintigraphic image of the anterior chest of Patient 03 acquired at 1, 2, and 6 days after iv administration of 1 mCi ^131I-NM324.
Based upon this work, NM404 [18-(4-iodophenyl)-octadecyl phosphocholine] emerged due to its enhanced ability to localize in tumor, its increased metabolic clearance from the liver, and its longer plasma half-life.

Data set [8] addresses T2, O-Alkyl glycerol monooxygenase (AGMO) (Homo sapiens, UniProt Q6ZNB7).
T2 construct: Using a microsomal AGMO enzyme preparation; from tissue
Nature of the data set: Microsomal AGMO substrate assay. Type of data set: biochemical. Conditions: microsomal enzyme preparation. Here is the method: as §1

Data set [9] relates to animal tumor models. Nature of the data set: Imaging and biodistribution across animal tumor models (general statements). Conditions: mammary, prostate, squamous cell carcinoma, ovarian, colorectal, melanoma. An excerpt:
See, for example, U.S. patent application Ser. Nos. 10/906,687, 11/177,740, 11/316,620 and 11/382,645. Due to deficiencies in metabolic phospholipase enzymes in the membranes of malignant tumor cells, the prevailing hypothesis for this specificity is that phospholipid ether analogs become trapped exclusively in tumor cell membranes because of their inability to become metabolized and eliminated by the cancerous cell. Thus, the differential clearance rates of phospholipid ethers from normal cells versus neoplastic tumor cells are responsible for this specificity.
The reason for the retention of PLE and analogs in cancer cells remains unknown. Without being held to any particular theory, however, the prevailing hypothesis, is that radioiodinated PLE and APC analogs become trapped in tumor cell membranes because of their inability to be metabolized and eliminated. On the other hand, such lipid molecules are metabolized and cleared by normal tissues, including the liver.
These PLE analogs are specifically designed to incorporate aromatic radioiodine in order to render the molecule stable towards in vivo deiodination.

Data set [10] concerns Prostate MatLyLu. In words: Gamma camera scintigraphy screen in Dunning R3327 (MAT LyLu) prostate cancer model. Type of data set: in vivo, Copenhagen rats. Conditions: radioiodinated analog 30-40 μCi, images incl. 24 and 48 hours post injection. On the procedure: The avidity of PLE and APC analogs to localize in tumors was evaluated in several animal models. The PC-3 model represents a human tumor cell line that was used to determine the target (tumor) to non-target ratio of NM404 and NM412 in head to head comparison in order to select a candidate for an initial human pharmacokinetic trial in prostate cancer patients. The MatLyLu (Dunning R3327 rat) model, a rat prostate tumor line, was used specifically to screen 9 specific analogs prior to entering them into control for dosimetry and tumor-bearing animals for determining tumor/background ratios. Finally, the Walker-256 carcinosarcoma model was used for quantitative tissue distribution purposes.
In order to expedite the screening process and minimize the number of tumor bearing animals utilized in multiple time point tissue distribution studies, new radioiodinated homologs were imaged by gamma camera scintigraphy in the rat Dunning […] (MAT LyLu strain) prostate cancer model. Thus, male Copenhagen rats received a subcutaneous injection of MAT LyLu cells (1×10^6 cells) in the thigh 10-14 days prior to injection of the radioiodinated PLE analogs (30-40 μCi) in 2% Tween-20 solution. Gamma camera images were obtained at multiple time points including 24 and 48 hours post injection. […] Tissue distribution of radioactivity in rats bearing Walker-256 carcinosarcoma was assessed at various time intervals following intravenous administration of the radioiodinated chain length homologs. The first group of compounds that was tested included three alkylphosphocholines: a shorter chain analog with seven carbons NM396 and two analogs with a longer chain length, 13 (NM397, C15 alkyl chain length) and 1 (NM404, C18 alkyl chain length).
In order to decrease liver uptake and prolong the plasma phase, the inventors examined 9 structural analogs of NM324 to identify agents that would display improved tumor-to-background tissue ratios with decreased liver uptake. The new PLE analogs were synthesized and radiolabeled with ^125I for initial image analysis in Copenhagen rats bearing Dunning R3327 prostate tumors. […] NM404 was therefore selected to undergo further imaging and biodistribution analysis in a variety of animal-tumor models.

Data set [11] relates to human PC-3 prostate tumor xenografts. Nature of the data set: Scintigraphy, microPET and tissue distribution in PC-3 tumor model. Conditions: advanced metastatic PC-3, 48 h post iv injection. Type of data set: in vivo, SCID mice.
Data set [12] has as its system non-small cell lung cancer (NSCLC). In words: Initial human pharmacokinetic evaluation, planar gamma-camera scintigraphy. Type of data set: in vivo. Conditions: <1 mCi injection, preliminary, n=3. From the text: FIG. 6A-C images of lung cancer patient, posterior whole body planar nuclear medicine image (A) 4 days after iv administration of ^131I-NM404 (0.8 mCi) to a patient with non small cell lung cancer (6 cm dia., arrow). Lung tumor is easily detected in corresponding axial (B) and coronal (C) computed tomography (CT) scans;
In preparation for human clinical trials, unlabeled NM404 was subjected to independent (University of Buffalo Toxicology Research Center) acute toxicity evaluation at 1200 times the anticipated imaging mass dose in rats and rabbits. […] Due to its selective tumor uptake and retention properties in a variety of rodent tumor models and subsequent excellent safety profile in rats and rabbits, NM404 was selected to undergo initial human pharmacokinetic evaluation in non-small cell lung cancer (NSCLC) patients. Patients underwent planar gamma-camera scintigraphy after receiving an injection of ^131I-NM404 (<1 mCi).

For data set [13] the following is noted: excess boron ingestion; cited from earlier work.

Structures are written as SMILES. “Also recorded” adds a separate entry of the source.

T1 sequence (P09598 39-283 limits assumed): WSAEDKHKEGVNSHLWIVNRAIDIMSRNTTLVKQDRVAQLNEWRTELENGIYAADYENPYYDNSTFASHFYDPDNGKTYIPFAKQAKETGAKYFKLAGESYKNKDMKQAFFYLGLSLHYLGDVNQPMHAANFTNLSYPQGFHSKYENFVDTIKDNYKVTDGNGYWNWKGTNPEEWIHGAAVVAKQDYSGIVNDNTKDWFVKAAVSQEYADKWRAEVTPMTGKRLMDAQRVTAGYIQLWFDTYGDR
T2 sequence (Q6ZNB7 whole entry, species assumed): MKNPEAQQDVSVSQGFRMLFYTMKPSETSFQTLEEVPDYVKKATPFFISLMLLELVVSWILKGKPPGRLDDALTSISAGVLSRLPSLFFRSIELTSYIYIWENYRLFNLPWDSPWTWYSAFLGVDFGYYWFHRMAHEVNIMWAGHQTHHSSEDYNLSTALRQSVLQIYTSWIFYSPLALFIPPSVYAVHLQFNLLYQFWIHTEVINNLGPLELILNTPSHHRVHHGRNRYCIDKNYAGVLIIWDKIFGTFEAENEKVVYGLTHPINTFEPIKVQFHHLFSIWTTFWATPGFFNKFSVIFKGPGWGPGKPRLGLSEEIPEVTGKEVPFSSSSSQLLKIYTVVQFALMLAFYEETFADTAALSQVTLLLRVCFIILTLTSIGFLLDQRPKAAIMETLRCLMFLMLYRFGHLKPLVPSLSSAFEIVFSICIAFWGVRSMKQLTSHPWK

As for `C[N+](C)(C)CCOP(=O)([O-])OCCCCCCCCCCCCc1cccc([125I])c1` [Compound 125I-NM324], in data set [1] (96 hours), the tumor-to-blood ratio came out at 8.6. Also, the “time of maximum tumor-to-normal tissue ratios” value in data set [1] (rat, in vivo) is 96 h.

With `[3H]C(CCCCCC)C([3H])CCCCCCCC(=O)O[C@H](COC(=O)CCCCCCCCCCCCCCC)COP(=O)([O-])OCC[N+](C)(C)C` (stereo partly drawn) [DPPC, 1-palmitoyl-2-[^3H]-palmitoyl-L-3-phosphatidylcholine, reference compound], in data set [2], the “hydrolysis by PLC” value is “underwent significant hydrolysis”.

Turning to `CCCCCCCCCCCCCCCCCCOCC(COP(=O)([O-])OCC[N+](C)(C)C)OC` (stereo not drawn) [ET-18-OCH3], in [3], the “ether lipid bound to HDL” value is reported as “about 6%” and the “ether lipid bound to albumin” value was 71%.

As to `O=C([O-])CC(O)(CC(=O)[O-])C(=O)[O-].[Ga+3]` [Gallium citrate, reference compound], the “uptake and retention in granulomas” value in [4] is reported as “concentrate significantly in the granulomatous lesions”.

`COC(COCCCCCCCCCCCCc1cccc([125I])c1)COP(=O)([O-])OCC[N+](C)(C)C` (stereo not drawn) [NM294]: in [5], the “selective retention by tumors” value is “selectively retained by a variety of human and animal tumors”.

As for `C[N+](C)(C)CCOP(=O)([O-])OCCCCCCCCCCCCc1cccc(I)c1` [NM324, 12-(m-iodophenyl)dodecyl phosphocholine], in data set [6], the “elimination half life time in plasma” value came out at 2.43 h. Also, the “hydrolysis by PLC” value in data set [2] is given as “not hydrolyzed”. The liver uptake entry in data set [7] (initial human pharmacokinetic studies) is recorded as “high liver uptake values; also recorded: unacceptable accumulation in liver tissue; also recorded: images were complicated by high liver radioactivity”. The “tumor uptake / detection” value in [7] is reported as “detected tumors”. Moreover, the “substrate for AGMO” value in data set [8] is given as “not a substrate”. For the same molecule, the “selective retention by tumors” value in [5] is “selectively retained by a variety of human and animal tumors”. Further, the “tumor visualization by scintigraphy” value in data set [9] was “successfully visualized”. For the same molecule, the “uptake and retention in granulomas” value in data set [4] was “no uptake and retention”.

Take `COC(COCCCCCCCCCCCCCCCCCCc1ccc(I)cc1)COP(=O)([O-])OCC[N+](C)(C)C` (stereo not drawn) [NM410]: the “gamma camera imaging findings (tumor, liver, abdomen)” value in [10] is “high hepatic uptake, significant abdominal accumulation and retention or poor tumor uptake and retention; also recorded: high radioactivity levels in the liver and abdomen with little to no uptake of the agent into tumors”.

For the molecule `C[N+](C)(C)CCOP(=O)([O-])OCCCCCCCCCCCCCCCCCCc1ccc([124I])cc1` [^124I-NM404], in data set [11], the “microPET uptake in primary tumor and lymph nodes” value is “significant uptake”.

`C[N+](C)(C)CCOP(=O)([O-])OCCCCCCCCCCCCc1cccc([131I])c1` [^131I-NM324]: the “tumor uptake / detection” value in data set [7] is listed as “Uptake is seen in the left lingular lung cancer (T) with increasing tumor-to-background ratios over time”.

`C[N+](C)(C)CCOP(=O)([O-])OCCCCCCCCCCCCCCCCCCc1ccc([131I])cc1` [^131I-NM404]: in data set [12], the “tumor uptake and retention” value was “tumor uptake and prolonged retention in primary lung tumors”.

In the case of `OB(O)O` [boric acid], in [13], the excretion entry is reported as “excreted rapidly in the urine” and the time to disappearance is on record as no more than 4 days.

Values taken from patent publication US8022235B2, “Compositions of phospholipid ether boronic acids and esters and methods for their synthesis and use” (Cellectar, Inc., priority 2007, dated 2011).
